The target in one experiment is Human Factor D (Homo sapiens (Human), UniProt P00746). Nature of the experiment: Human Factor D assay.
Sequence of Human Factor D (P00746 26-253): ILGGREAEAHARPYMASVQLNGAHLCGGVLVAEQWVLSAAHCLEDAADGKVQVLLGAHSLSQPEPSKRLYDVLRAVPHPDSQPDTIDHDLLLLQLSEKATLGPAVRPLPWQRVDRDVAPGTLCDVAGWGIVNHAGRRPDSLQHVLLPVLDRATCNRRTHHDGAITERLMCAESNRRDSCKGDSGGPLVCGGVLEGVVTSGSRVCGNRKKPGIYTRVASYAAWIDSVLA
Details: not given
In kind it is biochemical. The method, then: Example 8. Human Factor D Assay
Human Factor D (purified from human serum, Complement Technology, Inc.) at 80 nM final concentration is incubated with test compound at various concentrations for 5 minutes at room temperature in 50 mM Tris, 1M NaCl, pH 7.5. A synthetic substrate Z-L-Lys-SBzl and DTNB (Ellman's reagent) are added to final concentrations of 100 μM each. Absorbance at 405 nm (A405) is recorded at 30 second intervals for 30 minutes using a microplate spectrophotometer. IC50 values are calculated by nonlinear regression of complement Factor D reaction rates as a function of test compound concentration.
A word on the IC50: it is the concentration at which inhibition is half-maximal. `CC(C)(C)OC(=O)N=S(C)(=O)c1cccc(-c2cccc(NC(=O)[C@@H]3C[C@@H](F)CN3C(=O)Cn3nc(C(N)=O)c4ccccc43)c2F)c1` (stereo partly drawn) [Compound 49, tert-butyl ((3′-((2S,4R)-1-(2-(3-carbamoyl-1H-indazol-1-yl)acetyl)-4-fluoropyrrolidine-2-carboxamido)-2′-fluoro-[1,1′-biphenyl]-3-yl)(methyl)(oxo)-16-sulfaneylidene)-14-azanecarboxylate] had an IC50 of 1 to 10 µM.

The experiment is the same for the next values; noted with them: Factor D 80 nM, substrate Z-L-Lys-SBzl; Table 1; read-out: IC50.
Consider `CCOP(=O)(COc1cc2c(cc1-c1cnc(C)nc1)c(C(C)=O)cn2CC(=O)N1C[C@H](F)C[C@H]1C(=O)Nc1cccc(-c2ccccc2Cl)c1F)OCC` [Compound 8, diethyl (3-acetyl-1-(2-((2S,4R)-2-(2′-chloro-2-fluorobiphenyl-3-ylcarbamoyl)-4-fluoropyrrolidin-1-yl)-2-oxoethyl)-5-(2-methylpyrimidin-5-yl)-1H-indol-6-yloxy)methylphosphonate], for which the IC50 is less than 1 µM. Regarding `CC(=O)c1cn(CC(=O)N2C[C@H](F)C[C@H]2C(=O)Nc2cccc(-c3ccccc3Cl)c2F)c2cc(OCP(=O)(O)O)c(-c3cnc(C)nc3)cc12` [Compound 9, (3-acetyl-1-(2-((2S,4R)-2-(2′-chloro-2-fluorobiphenyl-3-ylcarbamoyl)-4-fluoropyrrolidin-1-yl)-2-oxoethyl)-5-(2-methylpyrimidin-5-yl)-1H-indol-6-yloxy)methylphos-phonic acid], the half-inhibitory concentration (IC50) was less than 1 µM.

As to `CC(=O)c1cn(CC(=O)N2C[C@H](F)C[C@H]2C(=O)Nc2cccc(Br)n2)c2cc(OCP(=O)(O)O)c(-c3cnc(C)nc3)cc12` [Compound 13, (3-acetyl-1-(2-((2S,4R)-2-(6-bromopyridin-2-ylcarbamoyl)-4-fluoropyrrolidin-1-yl)-2-oxoethyl)-5-(2-methylpyrimidin-5-yl)-1H-indol-6-yloxy)methylphos-phonic acid], the IC50 was less than 1 µM.

Staying with this experiment, now noted: Factor D 80 nM, substrate Z-L-Lys-SBzl; Table 2 (headed TABLE 1); read-out: IC50.
Regarding `CC(=O)c1nn(CC(=O)N2C[C@H](F)C[C@H]2C(=O)Nc2cccc(Br)n2)c2cc(OCC(=O)N(C)C)c(-c3cnc(C)nc3)cc12` [Compound 26, (2S,4R)-1-(2-(3-acetyl-6-(2-(dimethylamino)-2-oxoethoxy)-5-(2-methylpyrimidin-5-yl)-1H-indazol-1-yl)acetyl)-N-(6-bromopyridin-2-yl)-4-fluoropyrrolidine-2-carboxamide], the IC50 is less than 1 µM. Take `CC(=O)c1nn(CC(=O)N2C[C@H](F)C[C@H]2C(=O)Nc2cccc(Br)n2)c2cc(OCCOCc3ccccc3)c(-c3cnc(C)nc3)cc12` [Compound 33, (2S,4R)-1-(2-(3-acetyl-6-(2-(benzyloxy)ethoxy)-5-(2-methylpyrimidin-5-yl)-1H-indazol-1-yl)acetyl)-N-(6-bromopyridin-2-yl)-4-fluoropyrrolidine-2-carboxamide]: the IC50 was less than 1 µM. In the case of `COCOCCOc1cc2c(cc1-c1cnc(C)nc1)c(C(C)=O)nn2CC(=O)N1C[C@H](F)C[C@H]1C(=O)Nc1cccc(Br)n1` [Compound 39, (2S,4R)-1-(2-(3-acetyl-6-(2-(methoxymethoxy)ethoxy)-5-(2-methylpyrimidin-5-yl)-1H-indazol-1-yl)acetyl)-N-(6-bromopyridin-2-yl)-4-fluoropyrrolidine-2-carboxamide], the half-inhibitory concentration (IC50) was less than 1 µM. For the compound `CC(=O)c1nn(CC(=O)N2C[C@H](F)C[C@H]2C(=O)Nc2cccc(Br)n2)c2cc(OCCO)c(-c3cnc(C)nc3)cc12` [Compound 41, (2S,4R)-1-(2-(3-acetyl-6-(2-hydroxyethoxy)-5-(2-methylpyrimidin-5-yl)-1H-indazol-1-yl)acetyl)-N-(6-bromopyridin-2-yl)-4-fluoropyrrolidine-2-carboxamide], the IC50 was less than 1 µM. Consider `CC(=O)c1nn(CC(=O)N2C[C@H](F)C[C@H]2C(=O)Nc2cccc(Br)n2)c2cc(OCCN(C)C)c(-c3cnc(C)nc3)cc12` [Compound 44, (2S,4R)-1-(2-(3-acetyl-6-(2-(dimethylamino)ethoxy)-5-(2-methylpyrimidin-5-yl)-1H-indazol-1-yl)acetyl)-N-(6-bromopyridin-2-yl)-4-fluoropyrrolidine-2-carboxamide], for which the IC50 is less than 1 µM. For the compound `CC(=O)c1nn(CC(=O)N2C[C@H](F)C[C@H]2C(=O)Nc2cccc(Br)n2)c2ccc(-c3cnc(S(C)(=N)=O)nc3)cc12` (stereo partly drawn) [Compound 46, (2S,4R)-1-(2-(3-acetyl-5-(2-(S-methylsulfonimidoyl)pyrimidin-5-yl)-1H-indazol-1-yl)acetyl)-N-(6-bromopyridin-2-yl)-4-fluoropyrrolidine-2-carboxamide], the IC50 was less than 1 µM. As to `CC(=O)c1cn(CC(=O)N2C[C@H](F)C[C@H]2C(=O)Nc2cccc(Br)n2)c2ccc(S(C)(=O)=NC(=O)OC(C)(C)C)cc12` (stereo partly drawn) [Compound 47, tert-butyl ((3-acetyl-1-(2-((2S,4R)-2-((6-bromopyridin-2-yl)carbamoyl)-4-fluoropyrrolidin-1-yl)-2-oxoethyl)-1H-indol-5-yl)(methyl)(oxo)-16-sulfaneylidene)-14-azanecarboxylate], the IC50 was less than 1 µM.

Consider `CC(=O)c1cn(CC(=O)N2C[C@H](F)C[C@H]2C(=O)Nc2cccc(Br)n2)c2ccc(S(C)(=N)=O)cc12` (stereo partly drawn) [Compound 48, (2S,4R)-1-(2-(3-acetyl-5-(S-methylsulfonimidoyl)-1H-indol-1-yl)acetyl)-N-(6-bromopyridin-2-yl)-4-fluoropyrrolidine-2-carboxamide], for which the IC50 is less than 1 µM.

Source of the values: US11001600B2, “Disubstituted compounds for treatment of medical disorders” (Achillion Pharmaceuticals, Inc., priority 2015, dated 2021).
